From ChEMBL document CHEMBL1142815, “Influence of acid surrogates toward potency of VLA-4 antagonist” (Bioorg Med Chem Lett, 2005)

What was measured:
Integrin alpha-4/beta-1 [1] = target: T1, Integrin alpha-4/beta-1 (Homo sapiens, UniProt P05556+P13612); assay: Inhibition of VLA-4 receptor of Jurkat cells in BURJ assay; assay type: cell-based
Integrin alpha-4/beta-1 [2] = target: T1, Integrin alpha-4/beta-1; assay: Percentage binding to VLA-4 receptor of Jurkat cells; assay type: cell-based
[3] = Area under plasma concentration curve in rat upon intravenous administration of 5 mg/kg; assay type: ADME, organism-based; design: dose 5 mg/kg, route intravenous
[4] = Half-life in rat upon intravenous administration of 5 mg/kg; assay type: ADME, organism-based; design: dose 5 mg/kg, route intravenous; conditions: in vivo
[5] = Plasma clearance in rat upon intravenous administration of 5 mg/kg; assay type: ADME, organism-based; design: dose 5 mg/kg, route intravenous
[6] = Volume of distribution of compound in rat plasma upon intravenous administration of 5 mg/kg; assay type: ADME, organism-based; design: dose 5 mg/kg, route intravenous
[7] = Maximum concentration in rat plasma upon peroral administration of 5 mg/kg; assay type: ADME, organism-based; design: dose 5 mg/kg, route oral; conditions: po
[8] = Oral bioavailability in rat upon oral administration of 5 mg/kg; conditions: in vivo

T1 sequence (P05556 whole entry): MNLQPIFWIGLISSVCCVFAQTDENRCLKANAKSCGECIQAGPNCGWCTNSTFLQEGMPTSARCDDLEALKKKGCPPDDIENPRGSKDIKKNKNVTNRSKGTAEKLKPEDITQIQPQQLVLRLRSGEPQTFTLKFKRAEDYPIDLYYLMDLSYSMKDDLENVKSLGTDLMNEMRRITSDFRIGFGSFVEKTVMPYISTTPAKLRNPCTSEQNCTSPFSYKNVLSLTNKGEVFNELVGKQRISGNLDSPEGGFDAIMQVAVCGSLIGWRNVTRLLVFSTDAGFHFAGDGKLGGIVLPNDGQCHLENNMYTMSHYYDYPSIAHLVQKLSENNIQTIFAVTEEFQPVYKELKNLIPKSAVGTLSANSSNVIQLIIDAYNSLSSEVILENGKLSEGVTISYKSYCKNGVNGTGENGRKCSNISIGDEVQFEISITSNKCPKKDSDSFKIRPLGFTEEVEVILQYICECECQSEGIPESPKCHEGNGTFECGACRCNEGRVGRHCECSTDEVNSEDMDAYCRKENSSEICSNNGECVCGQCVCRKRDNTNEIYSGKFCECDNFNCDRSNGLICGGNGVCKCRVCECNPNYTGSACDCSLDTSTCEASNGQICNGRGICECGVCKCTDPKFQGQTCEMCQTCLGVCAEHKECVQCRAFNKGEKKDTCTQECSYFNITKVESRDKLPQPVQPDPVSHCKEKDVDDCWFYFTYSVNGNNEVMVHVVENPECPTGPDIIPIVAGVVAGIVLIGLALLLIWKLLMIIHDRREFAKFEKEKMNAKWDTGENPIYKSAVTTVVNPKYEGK
T1 sequence (P13612 whole entry): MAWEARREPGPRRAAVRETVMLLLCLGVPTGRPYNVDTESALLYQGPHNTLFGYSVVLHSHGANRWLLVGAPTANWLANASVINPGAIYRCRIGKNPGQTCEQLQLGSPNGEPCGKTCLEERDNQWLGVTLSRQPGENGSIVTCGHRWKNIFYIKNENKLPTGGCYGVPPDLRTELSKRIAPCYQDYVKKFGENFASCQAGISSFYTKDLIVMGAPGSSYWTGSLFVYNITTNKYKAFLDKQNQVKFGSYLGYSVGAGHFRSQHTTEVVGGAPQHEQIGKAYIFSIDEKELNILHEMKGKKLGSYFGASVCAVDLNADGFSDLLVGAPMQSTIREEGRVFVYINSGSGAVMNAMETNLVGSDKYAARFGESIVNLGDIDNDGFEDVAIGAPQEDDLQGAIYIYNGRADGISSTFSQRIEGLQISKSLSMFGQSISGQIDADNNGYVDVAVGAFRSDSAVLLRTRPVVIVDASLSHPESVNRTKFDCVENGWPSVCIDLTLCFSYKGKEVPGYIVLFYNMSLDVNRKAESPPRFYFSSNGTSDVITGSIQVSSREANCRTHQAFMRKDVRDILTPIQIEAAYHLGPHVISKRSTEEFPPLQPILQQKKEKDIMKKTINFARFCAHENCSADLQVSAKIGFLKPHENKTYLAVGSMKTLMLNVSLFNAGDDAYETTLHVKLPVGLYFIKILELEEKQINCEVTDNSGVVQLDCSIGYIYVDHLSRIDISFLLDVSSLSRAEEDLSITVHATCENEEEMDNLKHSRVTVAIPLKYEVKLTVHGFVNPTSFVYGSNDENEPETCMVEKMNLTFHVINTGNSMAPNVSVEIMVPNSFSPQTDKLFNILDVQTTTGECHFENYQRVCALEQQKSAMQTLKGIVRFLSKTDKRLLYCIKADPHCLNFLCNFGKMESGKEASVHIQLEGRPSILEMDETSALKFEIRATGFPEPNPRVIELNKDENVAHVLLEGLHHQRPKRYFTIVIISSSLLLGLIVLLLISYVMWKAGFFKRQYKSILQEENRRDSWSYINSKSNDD

SMILES	IC50 (Integrin alpha-4/beta-1 [1])	Percent binding to VLA-4 (Integrin alpha-4/beta-1 [2])	AUC [3]	half-life [4]	clearance [5]	Vd [6]	Cmax [7]	bioavailability [8]
O=C(Nc1ccc(C[C@H](NC(=O)[C@@H]2CCCN2S(=O)(=O)c2cc(Cl)cc(Cl)c2)c2cc(=O)[nH]o2)cc1)c1c(Cl)cncc1Cl	20 nM	–	3.51 µM·h	2.85 h	37.6 mL/min/kg	1.25 L/kg	–	–
O=C(Nc1ccc(C[C@H](NC(=O)[C@@H]2CCCN2S(=O)(=O)c2cc(Cl)cc(Cl)c2)c2nnn[nH]2)cc1)c1c(Cl)cncc1Cl	60 nM	0%	–	–	–	–	–	–
COc1cccc(OC)c1-c1ccc(C[C@@H](Cn2oc(=O)[nH]c2=O)NC(=O)[C@@H]2CCCN2S(=O)(=O)c2cc(Cl)cc(Cl)c2)cc1	6000 nM	–	–	–	–	–	–	–
O=C(Nc1ccc(C[C@H](NC(=O)[C@@H]2CCCN2S(=O)(=O)c2cc(Cl)cc(Cl)c2)c2cc(O)no2)cc1)c1c(Cl)cncc1Cl	–	8%	–	–	–	–	–	–
O=C(Nc1ccc(C[C@H](NC(=O)[C@@H]2CCCN2S(=O)(=O)c2cc(Cl)cc(Cl)c2)c2cc(O)[nH]n2)cc1)c1c(Cl)cncc1Cl	300 nM	6%	–	–	–	–	–	–

More lines, now with the values ahead:

IC50 (Integrin alpha-4/beta-1 [1])	Percent binding to VLA-4 (Integrin alpha-4/beta-1 [2])	AUC [3]	half-life [4]	clearance [5]	Vd [6]	Cmax [7]	bioavailability [8]	SMILES
11 nM	0%	–	–	–	–	–	–	O=C(Nc1ccc(C[C@H](NC(=O)[C@@H]2CCCN2S(=O)(=O)c2cc(Cl)cc(Cl)c2)C(=O)NS(=O)(=O)C(F)(F)F)cc1)c1c(Cl)cncc1Cl
0.03 nM	66%	0.68 µM·h	0.72 h	38.2 mL/min/kg	0.57 L/kg	3.14 nM	–	O=C(Nc1ccc(C[C@H](NC(=O)[C@@H]2CCCN2S(=O)(=O)c2cc(Cl)cc(Cl)c2)C(=O)O)cc1)c1c(Cl)cncc1Cl
13 nM	10%	–	–	–	–	–	–	CCOC(=O)CC(=O)[C@H](Cc1ccc(NC(=O)c2c(Cl)cncc2Cl)cc1)NC(=O)[C@@H]1CCCN1S(=O)(=O)c1cc(Cl)cc(Cl)c1
10 nM	0%	–	–	–	–	–	–	O=C(Nc1ccc(C[C@H](NC(=O)[C@@H]2CCCN2S(=O)(=O)c2cc(Cl)cc(Cl)c2)C(=O)NC(=O)C(F)(F)F)cc1)c1c(Cl)cncc1Cl
12 nM	0%	2.01 µM·h	2.78 h	60 mL/min/kg	2.61 L/kg	6.1 nM	0.19%	O=C(Nc1ccc(C[C@H](NC(=O)[C@@H]2CCCN2S(=O)(=O)c2cc(Cl)cc(Cl)c2)c2noc(O)n2)cc1)c1c(Cl)cncc1Cl
